Assay results: publication PMC6199744, “Development of Chemical Proteomics for the Folateome and Analysis of the Kinetoplastid Folateome” (ACS Infectious Diseases, 2018)
Where two headings read alike, the source gives them in different places.

Columns and labels:
Assay type in all cases: binding
[1] = molecular target: T1, HeLa cell extract proteins (Homo sapiens, UniProt P49721)
T1 construct: endogenous in cells; host or cells: HeLa cell extract

[2] = molecular target: T2, HeLa cell extract proteins (Homo sapiens, UniProt P61978)
T2 construct: endogenous in cells; host or cells: HeLa cell extract

[3] = molecular target: T3, HeLa cell extract proteins (Homo sapiens, UniProt Q15366)
T3 construct: endogenous in cells; host or cells: HeLa cell extract
T3 sequence (Q15366 whole entry): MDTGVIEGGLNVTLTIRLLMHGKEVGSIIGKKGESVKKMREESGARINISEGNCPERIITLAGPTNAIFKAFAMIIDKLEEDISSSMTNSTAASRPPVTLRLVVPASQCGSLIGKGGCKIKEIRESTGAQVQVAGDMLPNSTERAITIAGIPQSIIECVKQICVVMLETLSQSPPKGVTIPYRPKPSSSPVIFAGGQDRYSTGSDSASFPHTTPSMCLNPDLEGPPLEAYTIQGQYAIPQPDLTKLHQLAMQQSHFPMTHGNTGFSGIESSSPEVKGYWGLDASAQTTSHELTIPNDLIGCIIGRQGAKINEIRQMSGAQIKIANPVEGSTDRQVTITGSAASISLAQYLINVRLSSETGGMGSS

[4] = molecular target: T4, HeLa cell extract proteins (Homo sapiens, UniProt Q9Y6E2)
T4 construct: endogenous in cells; host or cells: HeLa cell extract
T4 sequence (Q9Y6E2 1-419): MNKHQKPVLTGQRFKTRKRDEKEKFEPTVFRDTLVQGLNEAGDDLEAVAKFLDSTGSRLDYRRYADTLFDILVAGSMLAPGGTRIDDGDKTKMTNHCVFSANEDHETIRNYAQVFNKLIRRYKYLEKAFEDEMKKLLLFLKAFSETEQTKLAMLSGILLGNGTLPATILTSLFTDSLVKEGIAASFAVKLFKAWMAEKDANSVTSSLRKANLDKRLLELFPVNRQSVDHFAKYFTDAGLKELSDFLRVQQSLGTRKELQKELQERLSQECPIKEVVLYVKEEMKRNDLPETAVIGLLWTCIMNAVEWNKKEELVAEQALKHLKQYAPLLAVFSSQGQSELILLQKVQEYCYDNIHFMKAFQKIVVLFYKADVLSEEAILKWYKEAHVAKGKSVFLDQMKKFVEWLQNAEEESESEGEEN

[5] = molecular target: T5, HeLa cell extract proteins (Homo sapiens, UniProt Q9HB07)
T5 construct: endogenous in cells; host or cells: HeLa cell extract
T5 sequence (Q9HB07 48-376): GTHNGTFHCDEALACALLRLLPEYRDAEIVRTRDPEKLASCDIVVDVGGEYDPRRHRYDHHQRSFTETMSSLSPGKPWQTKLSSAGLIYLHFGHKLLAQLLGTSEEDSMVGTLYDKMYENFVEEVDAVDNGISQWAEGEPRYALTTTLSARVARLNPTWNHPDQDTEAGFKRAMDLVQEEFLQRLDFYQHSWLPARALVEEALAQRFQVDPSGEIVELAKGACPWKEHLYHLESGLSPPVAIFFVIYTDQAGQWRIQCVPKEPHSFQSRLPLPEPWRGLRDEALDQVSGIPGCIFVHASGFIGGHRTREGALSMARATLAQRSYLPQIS

[6] = molecular target: T6, HeLa cell extract proteins (Homo sapiens, UniProt P41252)
T6 construct: endogenous in cells; host or cells: HeLa cell extract
T6 sequence (P41252 1-1262): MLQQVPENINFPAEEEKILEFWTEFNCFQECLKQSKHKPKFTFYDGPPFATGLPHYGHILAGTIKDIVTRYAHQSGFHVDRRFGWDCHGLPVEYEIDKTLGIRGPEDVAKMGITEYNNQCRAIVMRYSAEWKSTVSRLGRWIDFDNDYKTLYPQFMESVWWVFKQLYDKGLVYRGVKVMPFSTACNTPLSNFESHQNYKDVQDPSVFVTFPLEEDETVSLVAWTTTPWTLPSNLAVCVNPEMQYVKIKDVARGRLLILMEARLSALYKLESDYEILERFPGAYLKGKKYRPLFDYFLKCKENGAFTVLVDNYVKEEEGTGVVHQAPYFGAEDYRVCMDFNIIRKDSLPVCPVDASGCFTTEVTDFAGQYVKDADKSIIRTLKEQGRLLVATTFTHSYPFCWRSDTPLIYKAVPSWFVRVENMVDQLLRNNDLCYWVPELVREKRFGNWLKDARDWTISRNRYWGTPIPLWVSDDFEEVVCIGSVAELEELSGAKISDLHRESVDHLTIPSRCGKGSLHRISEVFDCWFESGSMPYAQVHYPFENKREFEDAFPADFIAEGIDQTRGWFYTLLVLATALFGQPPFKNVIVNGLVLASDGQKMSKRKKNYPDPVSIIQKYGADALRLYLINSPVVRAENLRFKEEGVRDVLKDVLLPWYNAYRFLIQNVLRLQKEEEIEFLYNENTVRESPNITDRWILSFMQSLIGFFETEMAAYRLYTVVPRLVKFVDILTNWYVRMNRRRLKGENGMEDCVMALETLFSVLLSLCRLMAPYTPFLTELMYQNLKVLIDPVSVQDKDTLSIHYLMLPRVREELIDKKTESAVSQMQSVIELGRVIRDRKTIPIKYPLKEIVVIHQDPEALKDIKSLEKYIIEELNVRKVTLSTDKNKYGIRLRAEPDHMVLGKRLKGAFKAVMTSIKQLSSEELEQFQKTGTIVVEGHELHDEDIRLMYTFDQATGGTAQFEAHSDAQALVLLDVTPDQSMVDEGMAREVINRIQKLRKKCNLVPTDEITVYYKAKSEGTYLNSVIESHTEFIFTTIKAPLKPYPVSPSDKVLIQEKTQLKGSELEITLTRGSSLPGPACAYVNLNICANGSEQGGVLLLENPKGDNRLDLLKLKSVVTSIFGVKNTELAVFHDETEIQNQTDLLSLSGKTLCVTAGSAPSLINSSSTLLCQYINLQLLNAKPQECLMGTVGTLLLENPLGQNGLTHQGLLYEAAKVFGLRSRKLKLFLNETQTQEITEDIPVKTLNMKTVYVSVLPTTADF

[7] = molecular target: T7, HeLa cell extract proteins (Homo sapiens, UniProt P31942)
T7 construct: endogenous in cells; host or cells: HeLa cell extract
T7 sequence (P31942 1-346): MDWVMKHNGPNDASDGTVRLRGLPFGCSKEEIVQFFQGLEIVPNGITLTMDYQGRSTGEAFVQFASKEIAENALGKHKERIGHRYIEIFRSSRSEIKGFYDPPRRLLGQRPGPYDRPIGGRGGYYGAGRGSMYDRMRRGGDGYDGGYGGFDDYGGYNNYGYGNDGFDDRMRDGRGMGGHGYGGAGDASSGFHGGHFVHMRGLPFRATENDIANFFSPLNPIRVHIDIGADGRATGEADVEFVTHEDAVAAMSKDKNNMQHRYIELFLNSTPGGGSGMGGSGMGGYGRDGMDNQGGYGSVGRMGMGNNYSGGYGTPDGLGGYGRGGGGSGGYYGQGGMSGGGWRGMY

[8] = molecular target: T8, HeLa cell extract proteins (Homo sapiens, UniProt Q96EY8)
T8 construct: endogenous in cells; host or cells: HeLa cell extract
T8 sequence (Q96EY8 33-250): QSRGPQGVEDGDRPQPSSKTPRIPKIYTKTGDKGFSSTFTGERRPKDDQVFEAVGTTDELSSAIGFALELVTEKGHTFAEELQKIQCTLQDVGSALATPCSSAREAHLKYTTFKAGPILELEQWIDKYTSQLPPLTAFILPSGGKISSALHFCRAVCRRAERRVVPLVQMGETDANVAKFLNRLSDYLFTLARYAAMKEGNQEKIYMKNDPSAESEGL

[9] = HeLa, captured protein C12ORF10
[10] = captured protein C12ORF10, HeLa

T1 sequence (P49721 whole entry): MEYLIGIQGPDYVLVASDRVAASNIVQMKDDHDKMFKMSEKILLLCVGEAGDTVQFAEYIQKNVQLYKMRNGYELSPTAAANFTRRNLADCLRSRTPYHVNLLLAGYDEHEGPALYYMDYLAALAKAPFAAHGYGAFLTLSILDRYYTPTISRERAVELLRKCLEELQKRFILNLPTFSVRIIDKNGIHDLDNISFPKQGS

| SMILES | fold changes relative to vehicle control ([1]; HeLa, captured protein PSMB2) | fold changes relative to vehicle control ([2]; HeLa, protein HNRNPK) | fold changes relative to vehicle control ([3]; protein PCBP2, HeLa) | fold changes relative to vehicle control ([4]; HeLa, protein BZW2) | fold changes relative to vehicle control [5, 9] | fold changes relative to vehicle control ([6]; HeLa, captured protein IARS) | fold changes relative to vehicle control ([7]; HeLa, captured protein HNRNPH3) | fold changes relative to vehicle control ([8]; HeLa, protein MMAB (COB)) | fold changes relative to vehicle control ([1]; HeLa, protein PSMB2) | fold changes relative to vehicle control ([2]; protein HNRNPK, HeLa) | fold changes relative to vehicle control ([4]; protein BZW2, HeLa) | fold changes relative to vehicle control [5, 10] | fold changes relative to vehicle control ([6]; HeLa, protein IARS) | fold changes relative to vehicle control ([7]; protein HNRNPH3, HeLa) | fold changes relative to vehicle control ([8]; HeLa, protein MMAB) | other results |
| --- | --- | --- | --- | --- | --- | --- | --- | --- | --- | --- | --- | --- | --- | --- | --- | --- |
| Nc1nc2c(c(=O)[nH]1)N(C=O)C(CNc1ccc(C(=O)N[C@@H](CCC(=O)O)C(=O)O)cc1)CN2 (some centres unmarked) [LEU, leucovorin] | 1.2 | 0.94 | 0.85 | 0.99 | 1.08 | 1.01 | 0.94 | 0.99 |  |  |  |  |  |  |  |  |
| Nc1nc2[nH]cc(CCc3ccc(C(=O)N[C@@H](CCC(=O)O)C(=O)O)cc3)c2c(=O)[nH]1 [PTX, pemetrexed] |  |  |  |  |  |  |  |  |  |  |  |  |  |  |  | fold changes relative to vehicle control [1]: 1.13; fold changes relative to vehicle control [2]: 0.96; fold changes relative to vehicle control [3]: 1.03; fold changes relative to vehicle control [4]: 0.98; fold changes relative to vehicle control [5]: 0.33; fold changes relative to vehicle control [6]: 0.96; fold changes relative to vehicle control [7]: 0.94; fold changes relative to vehicle control [8]: 0.85 |
| CCCCCCOc1ccc(Cc2cnc(N)nc2N)cc1 [compound 1] |  |  | 0.96 |  |  |  |  |  | 1.03 | 0.99 | 1.11 | 1.05 | 1.15 | 1.08 | 0.95 |  |
| CCCCCCOc1cccc(Cc2cnc(N)nc2N)c1 [compound 2] |  |  | 1.28 |  |  |  |  |  | 1.24 | 1.39 | 1.57 | 1.06 | 1.22 | 0.97 | 0.94 |  |
| Nc1nc2cccc(-c3ccccc3)c2n1Cc1ccc(Cl)c(Cl)c1 [compound 3] |  |  | 0.91 |  |  |  |  |  | 1.07 | 1.02 | 0.93 | 1.04 | 1.28 | 1.09 | 0.96 |  |
| NCCOCCOCC(=O)Nc1nc2ncc(CNc3ccc(C(=O)NC(CCC(=O)O)C(=O)O)cc3)nc2c(=O)[nH]1 (centres unmarked) [compound 6] | 1.03 | 1.13 | 1.04 | 1.1 | 0.78 | 1.03 | 0.99 | 0.51 |  |  |  |  |  |  |  |  |
| NCCCNc1ccc(C(=O)NC(CCC(=O)O)C(=O)O)cc1 (centres unmarked) [compound 7] | 1.07 | 0.95 | 0.96 | 1.12 | 1.12 | 1.1 | 1.01 | 0.94 |  |  |  |  |  |  |  |  |
